# Results from patent US9694016B2 (Novartis AG, priority 2013, dated 2017).
# Biological target: b-Raf (V600E) (Homo sapiens (Human), UniProt P15056, V600E)
# Conditions: read-out: b-Raf IC-50; AlphaScreen, 60 min pre-incubation, 3 hours reaction
# Chain of b-Raf (V600E) (P15056 whole entry V600E): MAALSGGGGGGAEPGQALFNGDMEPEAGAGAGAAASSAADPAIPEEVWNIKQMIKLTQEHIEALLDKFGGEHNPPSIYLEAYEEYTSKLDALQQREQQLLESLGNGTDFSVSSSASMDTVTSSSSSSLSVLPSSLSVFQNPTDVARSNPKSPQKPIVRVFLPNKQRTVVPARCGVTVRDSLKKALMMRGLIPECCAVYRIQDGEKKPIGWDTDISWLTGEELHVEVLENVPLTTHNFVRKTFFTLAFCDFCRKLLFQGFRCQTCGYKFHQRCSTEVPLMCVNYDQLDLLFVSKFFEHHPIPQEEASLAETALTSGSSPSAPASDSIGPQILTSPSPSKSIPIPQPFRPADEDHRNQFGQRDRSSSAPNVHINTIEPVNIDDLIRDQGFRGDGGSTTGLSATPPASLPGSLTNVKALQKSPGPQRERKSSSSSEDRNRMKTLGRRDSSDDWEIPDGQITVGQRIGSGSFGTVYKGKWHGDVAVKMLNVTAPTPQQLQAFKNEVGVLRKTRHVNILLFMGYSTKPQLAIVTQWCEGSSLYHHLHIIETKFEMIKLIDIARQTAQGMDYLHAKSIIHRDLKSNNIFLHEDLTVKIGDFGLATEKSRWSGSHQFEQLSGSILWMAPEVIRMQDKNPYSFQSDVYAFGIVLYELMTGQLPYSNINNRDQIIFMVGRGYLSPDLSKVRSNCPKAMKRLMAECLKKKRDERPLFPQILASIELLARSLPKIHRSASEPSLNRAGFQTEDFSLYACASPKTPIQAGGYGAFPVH
row,SMILES,IC50 [nM]
1,"CCNc1nc(-c2cc(NC(=O)c3ccnc(C4COC4)c3)ccc2C)cc(N2CCOCC2)n1 [Example 707, N-(3-(2-(ethylamino)-6-morpholinopyrimidin-4-yl)-4-methylphenyl)-2-(oxetan-3-yl)isonicotinamide]",1.9
2,"CCNc1nc(-c2cc(NC(=O)c3ccnc(C4(C#N)CC4)c3)ccc2C)cc(N2CCOCC2)n1 [Example 708, 2-(1-cyanocyclopropyl)-N-(3-(2-(ethylamino)-6-morpholinopyrimidin-4-yl)-4-methylphenyl)isonicotinamide]",0.5
3,"CCNc1nc(-c2cc(NC(=O)c3cnnc(C(C)(C)C#N)c3)ccc2C)cc(N2CCOCC2)n1 [Example 709, 6-(2-cyanopropan-2-yl)-N-(3-(2-(ethylamino)-6-morpholinopyrimidin-4-yl)-4-methylphenyl)pyridazine-4-carboxamide]",3.4
4,"CCNc1nc(-c2cc(NC(=O)c3ccnc(C(C)(C)C#N)c3)ccc2C)cc(N2CCOC[C@H]2C)n1 [Example 711, (R)-2-(2-cyanopropan-2-yl)-N-(3-(2-(ethylamino)-6-(3-methylmorpholino)pyrimidin-4-yl)-4-methylphenyl)isonicotinamide]",5.6
5,"CCNc1nc(-c2cc(NC(=O)c3ccnc(C(C)(C)O)c3)ccc2C)cc(N2CCOC[C@H]2C)n1 [Example 712, (R)—N-(3-(2-(ethylamino)-6-(3-methylmorpholino)pyrimidin-4-yl)-4-methylphenyl)-2-(2-hydroxypropan-2-yl)isonicotinamide]",12.1
6,"CCNc1nc(-c2cc(NC(=O)c3ccnc(C(C)(C)O)c3)ccc2C)cc(N2CCOC[C@@H]2C)n1 [Example 713, (S)—N-(3-(2-(ethylamino)-6-(3-methylmorpholino)pyrimidin-4-yl)-4-methylphenyl)-2-(2-hydroxypropan-2-yl)isonicotinamide]",2.5
7,"CCNc1nc(-c2cc(NC(=O)c3ccnc(C(C)(C)C#N)c3)ccc2C)cc(N2CCOC[C@@H]2C)n1 [Example 714, (S)-2-(2-cyanopropan-2-yl)-N-(3-(2-(ethylamino)-6-(3-methylmorpholino)pyrimidin-4-yl)-4-methylphenyl)isonicotinamide]",2.5
8,"CCNc1nc(-c2cc(NC(=O)c3cccc(C(F)(F)F)c3)cnc2C)cc(N2CCOCC2)n1 [Example 716, N-(5-(2-(ethylamino)-6-morpholinopyrimidin-4-yl)-6-methylpyridin-3-yl)-3-(trifluoromethyl)benzamide]",1.3
9,"CCNc1nc(-c2cc(NC(=O)c3ccnc(C(C)(C)C#N)c3)ccc2C)cc(N2CCOCC2)n1 [Example 717, 2-(2-cyanopropan-2-yl)-N-(3-(2-(ethylamino)-6-morpholinopyrimidin-4-yl)-4-methylphenyl)isonicotinamide]",2.9
10,"CCNc1nc(-c2cc(NC(=O)c3ccnc(C(C)(C)C#N)c3)cnc2C)cc(N2CCOCC2)n1 [Example 718, 2-(2-cyanopropan-2-yl)-N-(5-(2-(ethylamino)-6-morpholinopyrimidin-4-yl)-6-methylpyridin-3-yl)isonicotinamide]",8.4
11,"CCNc1nc(-c2cc(NC(=O)c3cc(C(F)(F)F)c(=O)n(CC)c3)cnc2C)cc(N2CCOCC2)n1 [Example 720, 1-ethyl-N-(5-(2-(ethylamino)-6-morpholinopyrimidin-4-yl)-6-methylpyridin-3-yl)-6-oxo-5-(trifluoromethyl)-1,6-dihydropyridine-3-carboxamide]",23.2
12,"CCNc1nc(-c2cc(NC(=O)c3ccnc(C(F)F)c3)cnc2C)cc(N2CCOCC2)n1 [Example 721, 2-(difluoromethyl)-N-(5-(2-(ethylamino)-6-morpholinopyrimidin-4-yl)-6-methylpyridin-3-yl)isonicotinamide]",3.3
13,"CCNc1nc(-c2cc(NC(=O)c3cccc(C(F)F)c3)cnc2C)cc(N2CCOCC2)n1 [Example 722, 3-(difluoromethyl)-N-(5-(2-(ethylamino)-6-morpholinopyrimidin-4-yl)-6-methylpyridin-3-yl)benzamide]",1.6
14,"CCNc1nc(-c2cc(NC(=O)c3ccnc(C(C)(C)O)c3)cnc2C)cc(N2CCOCC2)n1 [Example 723, N-(5-(2-(ethylamino)-6-morpholinopyrimidin-4-yl)-6-methylpyridin-3-yl)-2-(2-hydroxypropan-2-yl)isonicotinamide]",34.8
15,"CCNc1nc(-c2cc(NC(=O)c3ccnc(C(C)(C)C)c3)cnc2C)cc(N2CCOCC2)n1 [Example 724, 2-(tert-butyl)-N-(5-(2-(ethylamino)-6-morpholinopyrimidin-4-yl)-6-methylpyridin-3-yl)isonicotinamide]",20.5
16,"CCNc1nc(-c2cc(NC(=O)c3cccc(C(C)(C)C#N)c3)cnc2C)cc(N2CCOCC2)n1 [Example 726, 3-(2-cyanopropan-2-yl)-N-(5-(2-(ethylamino)-6-morpholinopyrimidin-4-yl)-6-methylpyridin-3-yl)benzamide]",9
17,"CCNc1nc(-c2cc(NC(=O)c3cnnc(C4CC4)c3)cnc2C)cc(N2CCOCC2)n1 [Example 727, 6-cyclopropyl-N-(5-(2-(ethylamino)-6-morpholinopyrimidin-4-yl)-6-methylpyridin-3-yl)pyridazine-4-carboxamide]",8.5

row,SMILES,IC50 [nM]
1,"CCNc1nc(-c2cc(NC(=O)c3ccnc(C4(C#N)CC4)c3)cnc2C)cc(N2CCOCC2)n1 [Example 728, 2-(1-cyanocyclopropyl)-N-(5-(2-(ethylamino)-6-morpholinopyrimidin-4-yl)-6-methylpyridin-3-yl)isonicotinamide]",4.4
2,"CCNc1nc(-c2cc(NC(=O)c3ccnc(C4COC4)c3)cnc2C)cc(N2CCOCC2)n1 [Example 729, N-(5-(2-(ethylamino)-6-morpholinopyrimidin-4-yl)-6-methylpyridin-3-yl)-2-(oxetan-3-yl)isonicotinamide]",17.7
3,"CCNc1nc(-c2cc(NC(=O)c3cnnc(C(C)(C)C#N)c3)cnc2C)cc(N2CCOCC2)n1 [Example 730, 6-(2-cyanopropan-2-yl)-N-(5-(2-(ethylamino)-6-morpholinopyrimidin-4-yl)-6-methylpyridin-3-yl)pyridazine-4-carboxamide]",27.2
4,"CCNc1nc(-c2cc(C(=O)Nc3ccccc3)ccc2C)cc(N2CCOCC2)n1 [Example 731, 3-(2-(ethylamino)-6-morpholinopyrimidin-4-yl)-4-methyl-N-phenylbenzamide]",4.4
5,"CCNc1nc(-c2cc(C(=O)Nc3cccc(C(C)(C)C#N)c3)ccc2C)cc(N2CCOCC2)n1 [Example 732, N-(3-(2-cyanopropan-2-yl)phenyl)-3-(2-(ethylamino)-6-morpholinopyrimidin-4-yl)-4-methylbenzamide]",2.2
6,"CCNc1nc(-c2cc(C(=O)Nc3cccc(C(F)F)c3)ccc2C)cc(N2CCOCC2)n1 [Example 733, N-(3-(difluoromethyl)phenyl)-3-(2-(ethylamino)-6-morpholinopyrimidin-4-yl)-4-methylbenzamide]",0.8
7,"Cc1ccc(NC(=O)c2ccnc(C(C)(C)C#N)c2)cc1-c1cc(N2CCOCC2)nc(NCCO)n1 [Example 734, 2-(2-cyanopropan-2-yl)-N-(3-(2-((2-hydroxyethyl)amino)-6-morpholinopyrimidin-4-yl)-4-methylphenyl)isonicotinamide]",6.9
8,"Cc1ncc(NC(=O)c2cccc(C(F)(F)F)c2)cc1-c1cc(N2CCOCC2)nc(NCCO)n1 [Example 735, N-(5-(2-((2-hydroxyethyl)amino)-6-morpholinopyrimidin-4-yl)-6-methylpyridin-3-yl)-3-(trifluoromethyl)benzamide]",4.3
9,"Cc1ccc(NC(=O)c2cnnc(C(C)(C)C#N)c2)cc1-c1cc(N2CCOCC2)nc(NCCO)n1 [Example 737, 6-(2-cyanopropan-2-yl)-N-(3-(2-((2-hydroxyethyl)amino)-6-morpholinopyrimidin-4-yl)-4-methylphenyl)pyridazine-4-carboxamide]",17.9
10,"Cc1ncc(NC(=O)c2ccnc(C(C)(C)C#N)c2)cc1-c1cc(N2CCOCC2)nc(NC[C@H](C)O)n1 [Example 738, (S)-2-(2-cyanopropan-2-yl)-N-(5-(2-((2-hydroxypropyl)amino)-6-morpholinopyrimidin-4-yl)-6-methylpyridin-3-yl)isonicotinamide]",33.2
11,"Cc1ncc(NC(=O)c2cccc(C(F)(F)F)c2)cc1-c1cc(N2CCOCC2)nc(NC[C@H](C)O)n1 [Example 740, (S)—N-(5-(2-((2-hydroxypropyl)amino)-6-morpholinopyrimidin-4-yl)-6-methylpyridin-3-yl)-3-(trifluoromethyl)benzamide]",2.1
12,"Cc1ncc(NC(=O)c2ccnc(C(C)(C)C#N)c2)cc1-c1cc(N2CCOCC2)nc(NC[C@@H](C)O)n1 [Example 742, (R)-2-(2-cyanopropan-2-yl)-N-(5-(2-((2-hydroxypropyl)amino)-6-morpholinopyrimidin-4-yl)-6-methylpyridin-3-yl)isonicotinamide]",38.6
13,"Cc1ncc(NC(=O)c2ccnc(C(C)(C)C#N)c2)cc1-c1cc(N2CCOCC2)nc(N[C@@H](C)CO)n1 [Example 744, (S)-2-(2-cyanopropan-2-yl)-N-(5-(2-((1-hydroxypropan-2-yl)amino)-6-morpholinopyrimidin-4-yl)-6-methylpyridin-3-yl)isonicotinamide]",42.7
14,"Cc1ncc(NC(=O)c2cccc(C(F)(F)F)c2)cc1-c1cc(N2CCOCC2)nc(N[C@@H](C)CO)n1 [Example 745, (S)—N-(5-(2-((1-hydroxypropan-2-yl)amino)-6-morpholinopyrimidin-4-yl)-6-methylpyridin-3-yl)-3-(trifluoromethyl)benzamide]",3.6
15,Cc1ccc(NC(=O)c2ccnc(C(C)(C)C#N)c2)cc1-c1cc(N2CCOCC2)nc(N[C@@H](C)CO)n1 [Example 746],4.6
16,"Cc1ncc(NC(=O)c2ccnc(C(C)(C)C#N)c2)cc1-c1cc(N2CCOCC2)nc(N[C@H](C)CO)n1 [Example 747, (R)-2-(2-cyanopropan-2-yl)-N-(5-(2-((1-hydroxypropan-2-yl)amino)-6-morpholinopyrimidin-4-yl)-6-methylpyridin-3-yl)isonicotinamide]",19
